Test results published in patent US20230024096A1, “BIFUNCTIONAL COMPOUNDS FOR THE TREATMENT OF CANCER” (Hoffmann-La Roche Inc., priority 2019, published 2023).

Molecular target: T1, SMARCA2 (Homo sapiens, UniProt P51531)
T1 construct: endogenous in cells; host or cells: HT1080 (CRISPR HiBiT knock-in clone, generated in house)
Assay: SMARCA2 HiBiT degradation assay (cellular)
Assay type: cell-based
Settings: table head names A549; for DC50: 6 h incubation, HiBiT-tagged SMARCA2, luminescence read-out, read-out: HiBit A549 SMARCA2 IP (nM) 6 h; for Emax: A549, 6 h incubation, Emax = amount of residual protein remaining in the cell following compound treatment

T1 sequence (P51531 whole entry): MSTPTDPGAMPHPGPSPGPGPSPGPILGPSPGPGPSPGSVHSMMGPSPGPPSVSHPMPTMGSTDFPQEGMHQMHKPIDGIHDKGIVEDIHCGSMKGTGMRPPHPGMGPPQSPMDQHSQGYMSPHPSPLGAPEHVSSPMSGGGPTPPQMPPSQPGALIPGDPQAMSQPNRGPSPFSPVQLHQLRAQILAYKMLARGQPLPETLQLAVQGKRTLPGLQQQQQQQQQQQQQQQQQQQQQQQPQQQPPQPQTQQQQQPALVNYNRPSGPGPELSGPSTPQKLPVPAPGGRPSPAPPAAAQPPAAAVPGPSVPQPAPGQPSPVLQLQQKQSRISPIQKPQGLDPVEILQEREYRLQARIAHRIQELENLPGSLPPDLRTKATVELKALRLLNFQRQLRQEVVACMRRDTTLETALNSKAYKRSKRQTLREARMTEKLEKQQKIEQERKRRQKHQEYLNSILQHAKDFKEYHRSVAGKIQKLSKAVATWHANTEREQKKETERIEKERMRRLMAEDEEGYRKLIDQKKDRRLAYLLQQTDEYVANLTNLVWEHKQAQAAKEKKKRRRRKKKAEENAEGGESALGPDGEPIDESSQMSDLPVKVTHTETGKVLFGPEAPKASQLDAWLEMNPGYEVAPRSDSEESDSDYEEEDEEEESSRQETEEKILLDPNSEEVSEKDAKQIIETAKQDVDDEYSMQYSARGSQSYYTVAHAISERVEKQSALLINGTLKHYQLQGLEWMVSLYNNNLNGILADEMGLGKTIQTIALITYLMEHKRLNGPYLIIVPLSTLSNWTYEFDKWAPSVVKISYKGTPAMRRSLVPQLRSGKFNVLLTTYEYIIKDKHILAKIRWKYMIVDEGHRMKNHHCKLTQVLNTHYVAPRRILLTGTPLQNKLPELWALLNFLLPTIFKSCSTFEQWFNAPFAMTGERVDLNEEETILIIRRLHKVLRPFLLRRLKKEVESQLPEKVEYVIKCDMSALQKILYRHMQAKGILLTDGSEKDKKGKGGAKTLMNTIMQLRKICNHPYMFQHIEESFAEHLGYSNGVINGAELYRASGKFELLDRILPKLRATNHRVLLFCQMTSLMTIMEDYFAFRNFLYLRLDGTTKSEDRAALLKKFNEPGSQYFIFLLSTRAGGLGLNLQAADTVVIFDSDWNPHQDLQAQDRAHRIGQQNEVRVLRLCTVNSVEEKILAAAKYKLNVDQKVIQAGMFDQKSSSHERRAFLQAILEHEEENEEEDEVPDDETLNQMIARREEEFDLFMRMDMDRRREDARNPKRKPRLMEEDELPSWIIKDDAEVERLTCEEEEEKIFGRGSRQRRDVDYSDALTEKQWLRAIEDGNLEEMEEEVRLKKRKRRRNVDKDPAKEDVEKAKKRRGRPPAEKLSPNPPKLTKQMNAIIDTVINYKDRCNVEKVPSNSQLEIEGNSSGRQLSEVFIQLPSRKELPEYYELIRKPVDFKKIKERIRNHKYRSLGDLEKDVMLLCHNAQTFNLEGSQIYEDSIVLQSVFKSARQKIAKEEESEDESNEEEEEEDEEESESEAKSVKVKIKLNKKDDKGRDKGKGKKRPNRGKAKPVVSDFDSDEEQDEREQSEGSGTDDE

Row | SMILES | DC50 [nM] | Emax [%]
1 | Nc1nnc(-c2ccccc2O)cc1N1CC2CCC(C1)N2c1cccc(CN2CCC(C(=O)NC3CCN(c4ccc5c(c4)C(=O)N(C4CCC(=O)NC4=O)C5=O)CC3)CC2)c1 (racemic) [Example 106, rac-1-[[3-[3-[3-amino-6-(2-hydroxyphenyl)pyridazin-4-yl]-3,8-diazabicyclo[3.2.1]octan-8-yl]phenyl]methyl]-N-[1-[2-(2,6-dioxo-3-piperidyl)-1,3-dioxo-isoindolin-5-yl]-4-piperidyl]piperidine-4-carboxamide] | 23 | 26
2 | Nc1nnc(-c2ccccc2O)cc1N1CC2CCC(C1)N2c1ccc(C(F)(F)F)c(C(=O)N2CCN(C(=O)C3CCN(c4ccc5c(c4)C(=O)N(C4CCC(=O)NC4=O)C5=O)CC3)CC2)c1 (racemic) [Example 107, rac-5-[4-[4-[5-[3-[3-amino-6-(2-hydroxyphenyl)pyridazin-4-yl]-3,8-diazabicyclo[3.2.1]octan-8-yl]-2-(trifluoromethyl)benzoyl]piperazine-1-carbonyl]-1-piperidyl]-2-(2,6-dioxo-3-piperidyl)isoindoline-1,3-dione] | 193 | 51
3 | Nc1nnc(-c2ccccc2O)cc1N1CC(Oc2cccc(N3CCN(C(=O)CN4CCC(c5ccc(NC6CCC(=O)NC6=O)cc5)CC4)CC3)c2)C1 (racemic) [Example 112, rac-3-[4-[1-[2-[4-[3-[1-[3-amino-6-(2-hydroxyphenyl)pyridazin-4-yl]azetidin-3-yl]oxyphenyl]piperazin-1-yl]-2-oxo-ethyl]-4-piperidyl]anilino]piperidine-2,6-dione] | 101 | 51
4 | Nc1nnc(-c2ccccc2O)cc1N1CC2CCC(C1)N2c1cccc(OC2CCN(C(=O)C3CCN(c4ccc5c(c4)C(=O)N(C4CCC(=O)NC4=O)C5=O)CC3)CC2)c1 (racemic) [Example 113, rac-5-[4-[4-[3-[3-[3-amino-6-(2-hydroxyphenyl)pyridazin-4-yl]-3,8-diazabicyclo[3.2.1]octan-8-yl]phenoxy]piperidine-1-carbonyl]-1-piperidyl]-2-(2,6-dioxo-3-piperidyl)isoindoline-1,3-dione] | 19 | 35
5 | Nc1nnc(-c2ccccc2O)cc1N1CC2CCC(C1)N2c1cccc(OC2CCN(C(=O)CN3CCC(c4ccc(NC5CCC(=O)NC5=O)cc4)CC3)CC2)c1 (racemic) [Example 114, rac-3-[4-[1-[2-[4-[3-[3-[3-amino-6-(2-hydroxyphenyl)pyridazin-4-yl]-3,8-diazabicyclo[3.2.1]octan-8-yl]phenoxy]-1-piperidyl]-2-oxo-ethyl]-4-piperidyl]anilino]piperidine-2,6-dione] | 82 | 40
6 | Cc1c(C(=O)N2CCN(C(=O)C3CCN(c4ccc5c(c4)C(=O)N(C4CCC(=O)NC4=O)C5=O)CC3)CC2)cccc1N1C2CCC1CN(c1cc(-c3ccccc3O)nnc1N)C2 (racemic) [Example 116, rac-5-[4-[4-[3-[3-[3-amino-6-(2-hydroxyphenyl)pyridazin-4-yl]-3,8-diazabicyclo[3.2.1]octan-8-yl]-2-methyl-benzoyl]piperazine-1-carbonyl]-1-piperidyl]-2-(2,6-dioxo-3-piperidyl)isoindoline-1,3-dione] | 58 | 32
7 | Cc1c(C(=O)N2CCN(C(=O)CCC3CCN(c4ccc5c(c4)C(=O)N(C4CCC(=O)NC4=O)C5=O)CC3)CC2)cccc1N1C2CCC1CN(c1cc(-c3ccccc3O)nnc1N)C2 (racemic) [Example 117, rac-5-[4-[3-[4-[3-[3-[3-amino-6-(2-hydroxyphenyl)pyridazin-4-yl]-3,8-diazabicyclo[3.2.1]octan-8-yl]-2-methyl-benzoyl]piperazin-1-yl]-3-oxo-propyl]-1-piperidyl]-2-(2,6-dioxo-3-piperidyl)isoindoline-1,3-dione] | 144 | 50
8 | CN(C(=O)C1CCN(Cc2cccc(N3C4CCC3CN(c3cc(-c5ccccc5O)nnc3N)C4)c2)CC1)C1CCN(c2ccc3c(c2)C(=O)N(C2CCC(=O)NC2=O)C3=O)CC1 (racemic) [Example 118, rac-1-[[3-[3-[3-amino-6-(2-hydroxyphenyl)pyridazin-4-yl]-3,8-diazabicyclo[3.2.1]octan-8-yl]phenyl]methyl]-N-[1-[2-(2,6-dioxo-3-piperidyl)-1,3-dioxo-isoindolin-5-yl]-4-piperidyl]-N-methyl-piperidine-4-carboxamide] | 11 | 26
9 | Nc1nnc(-c2ccccc2O)cc1N1CC(Oc2ccc(C(=O)N3CCN(C(=O)C4CCN(c5ccc6c(c5)C(=O)N(C5CCC(=O)NC5=O)C6=O)CC4)CC3)c(Cl)c2)C1 (racemic) [Example 125, rac-5-[4-[4-[4-[1-[3-amino-6-(2-hydroxyphenyl)pyridazin-4-yl]azetidin-3-yl]oxy-2-chloro-benzoyl]piperazine-1-carbonyl]-1-piperidyl]-2-(2,6-dioxo-3-piperidyl)isoindoline-1,3-dione] | 30 | 42
10 | CC(Oc1cccc2c1C(=O)N(C1CCC(=O)NC1=O)C2=O)c1cn(CCCCCCCCCN2CCN(c3ccc(N4CCC[C@H](Oc5cc(-c6ccccc6O)nnc5N)C4)cc3)CC2)nn1 (mixture of isomers) [Example 126, 2-(2,6-dioxo-3-piperidyl)-4-[1-[1-[9-[4-[4-[rac-(3S)-3-[3-amino-6-(2-hydroxyphenyl)pyridazin-4-yl]oxy-1-piperidyl]phenyl]piperazin-1-yl]nonyl]triazol-4-yl]ethoxy]isoindoline-1,3-dione] | 73 | 26
11 | Nc1nnc(-c2ccccc2O)cc1N1CC2CCC(C1)N2c1cccc(CN2CCN(C(=O)C3CCN(c4ccc5c(c4)C(=O)N(C4CCC(=O)NC4=O)C5=O)CC3)CC2)n1 (racemic) [Example 131, rac-5-[4-[4-[[6-[3-[3-amino-6-(2-hydroxyphenyl)pyridazin-4-yl]-3,8-diazabicyclo[3.2.1]octan-8-yl]-2-pyridyl]methyl]piperazine-1-carbonyl]-1-piperidyl]-2-(2,6-dioxo-3-piperidyl)isoindoline-1,3-dione] | 27 | 32
12 | Nc1nnc(-c2ccccc2O)cc1N1CC(Oc2ccc(C(=O)N3CCN(C(=O)C4CCN(c5ccc6c(c5)C(=O)N(C5CCC(=O)NC5=O)C6=O)CC4)CC3)c(C(F)(F)F)c2)C1 (racemic) [Example 132, rac-5-[4-[4-[4-[1-[3-amino-6-(2-hydroxyphenyl)pyridazin-4-yl]azetidin-3-yl]oxy-2-(trifluoromethyl)benzoyl]piperazine-1-carbonyl]-1-piperidyl]-2-(2,6-dioxo-3-piperidyl)isoindoline-1,3-dione] | 133 | 44
13 | Nc1nnc(-c2ccccc2O)cc1N1CC2CCC(C1)N2c1cccc(CN2CCN(C(=O)CCC3CCN(c4ccc5c(c4)C(=O)N(C4CCC(=O)NC4=O)C5=O)CC3)CC2)n1 (racemic) [Example 133, rac-5-[4-[3-[4-[[6-[3-[3-amino-6-(2-hydroxyphenyl)pyridazin-4-yl]-3,8-diazabicyclo[3.2.1]octan-8-yl]-2-pyridyl]methyl]piperazin-1-yl]-3-oxo-propyl]-1-piperidyl]-2-(2,6-dioxo-3-piperidyl)isoindoline-1,3-dione] | 64 | 44
14 | Nc1nnc(-c2ccccc2O)cc1N1CC2CCC(C1)N2c1cccc(CN2CCC(C(=O)NC3CN(c4ccc5c(c4)C(=O)N(C4CCC(=O)NC4=O)C5=O)C3)CC2)c1 (racemic) [Example 134, rac-1-[[3-[3-[3-amino-6-(2-hydroxyphenyl)pyridazin-4-yl]-3,8-diazabicyclo[3.2.1]octan-8-yl]phenyl]methyl]-N-[1-[2-(2,6-dioxo-3-piperidyl)-1,3-dioxo-isoindolin-5-yl]azetidin-3-yl]piperidine-4-carboxamide] | 31 | 36
15 | Nc1nnc(-c2ccccc2O)cc1O[C@H]1CCCN(c2ccc(N3CCN(CCCCC(=O)N4CCC(Cn5cc(COc6cccc7c6C(=O)N(C6CCC(=O)NC6=O)C7=O)nn5)CC4)CC3)cc2)C1 (mixture of isomers) [Example 135, 2-(2,6-dioxo-3-piperidyl)-4-[[1-[[1-[5-[4-[4-[rac-(3S)-3-[3-amino-6-(2-hydroxyphenyl)pyridazin-4-yl]oxy-1-piperidyl]phenyl]piperazin-1-yl]pentanoyl]-4-piperidyl]methyl]triazol-4-yl]methoxy]isoindoline-1,3-dione] | 382 | 35
16 | Nc1nnc(-c2ccccc2O)cc1OC1CCCN(c2ccc(N3CCN(CC4CN(C(=O)CCCCn5cc(COc6cccc7c6C(=O)N(C6CCC(=O)NC6=O)C7=O)nn5)C4)CC3)cc2)C1 (racemic) [Example 137, 2-(2,6-dioxo-3-piperidyl)-4-[[1-[5-oxo-5-[3-[[4-[4-[rac-(3S)-3-[3-amino-6-(2-hydroxyphenyl)pyridazin-4-yl]oxy-1-piperidyl]phenyl]piperazin-1-yl]methyl]azetidin-1-yl]pentyl]triazol-4-yl]methoxy]isoindoline-1,3-dione] | 535 | 63
17 | Nc1nnc(-c2ccccc2O)cc1OC1CCCN(c2ccc(N3CCN(CCCCC(=O)N4CCC(n5cc(COc6cccc7c6C(=O)N(C6CCC(=O)NC6=O)C7=O)nn5)CC4)CC3)cc2)C1 (racemic) [Example 138, 2-(2,6-dioxo-3-piperidyl)-4-[[1-[1-[5-[4-[4-[rac-(3S)-3-[3-amino-6-(2-hydroxyphenyl)pyridazin-4-yl]oxy-1-piperidyl]phenyl]piperazin-1-yl]pentanoyl]-4-piperidyl]triazol-4-yl]methoxy]isoindoline-1,3-dione] | 678 | 42
18 | Nc1nnc(-c2ccccc2O)cc1O[C@H]1CCCN(c2ccc(N3CCN(CC4CCN(C(=O)CCCCn5cc(COc6cccc7c6C(=O)N(C6CCC(=O)NC6=O)C7=O)nn5)CC4)CC3)cc2)C1 (mixture of isomers) [Example 140, 2-(2,6-dioxo-3-piperidyl)-4-[[1-[5-oxo-5-[4-[[4-[4-[rac-(3S)-3-[3-amino-6-(2-hydroxyphenyl)pyridazin-4-yl]oxy-1-piperidyl]phenyl]piperazin-1-yl]methyl]-1-piperidyl]pentyl]triazol-4-yl]methoxy]isoindoline-1,3-dione] | 275 | 42
